Tests used:
[1] = dihydrate from slurry of the compound in water, disclosed in WO 2007/007041; cited from earlier work
[2] = relative stability of the crystalline forms of the compound; assay type: physicochemical; conditions: crystalline form prepared from isopropyl alcohol (IPA)

Compound: COC[C@H](C)Oc1cc(Oc2cnc(C(=O)N3CCC3)cn2)cc(C(=O)Nc2cnc(C)cn2)c1 [Form 3, 3-{[5-(azetidin-1-ylcarbonyl)pyrazin-2-yl]oxy}-5-{[(1S)-1-methyl-2-(methyloxy)ethyl]oxy}-N-(5-methylpyrazin-2-yl)benzamide]
- stability of crystalline form in the presence of water [1]: most stable

Compound: COC[C@H](C)Oc1cc(Oc2cnc(C(=O)N3CCC3)cn2)cc(C(=O)Nc2cnc(C)cn2)c1 [Form 6, 3-{[5-(azetidin-1-ylcarbonyl)pyrazin-2-yl]oxy}-5-{[(1S)-1-methyl-2-(methyloxy)ethyl]oxy}-N-(5-methylpyrazin-2-yl)benzamide]
- stability of crystalline form relative to the other forms [2]: more stable
